# Measurements published in patent US20070160491A1, “Method For Determining Lumen Penetration Of A Vapor Phase Sterilant” (priority 2002, published 2007).
# Values joined by “and” are separate entries in the source; they are usually repeats but may differ in a detail not shown here. Identical values can stand only once. Like-named read-outs stand apart in the source and are kept apart here.
# Assays:
# [1] = system: biological indicators (test microorganisms)
# Excerpt: However, other process variables are also important, such as chamber and load temperature, size and composition of the load and exposure time. For a fixed load configuration in a particular sterilizer with a qualified sterilization cycle, temperature remains relatively constant during injection, so concentration and exposure time become the most important control variables. Area under a concentration-time curve is a useful index for quantifying cycle performance to compare with efficacy as measured via biological indicators.
# (§1) An estimate of the area under the concentration-time curve is obtained by summing the one-second concentration values in the injection and diffusion steps of the cycle, as shown in Table 1 for sterilization cycles in a STERRAD® 200 […] sterilizer available from Advanced Sterilization Products division of Ethicon, Inc., Irvine, Calif., with different lumens in the validation load. The area scale for stainless steel (SS) is established by setting the value of the rate constant k equal to 0.46 sec^−1 to give an area of approximately 100 mg−sec/l for the cycles with 3 mm×500 mm stainless steel lumens at 30° C.
# [2] = for rate constant of condensation k^C / rate constant of decomposition k^D: 3 mm stainless steel lumen
# Excerpt: k=rate constant for losses in the lumen, sec^−1
# The rate of mass input per volume to the lumen 20 by internal processes is a negative term, whenever mass is lost in the lumen 20 by decomposition, absorption, adsorption and condensation. In that case the rate constant k is a negative number.
# The rate constant k cannot be measured experimentally inside the lumen 20 without disturbing the internal environment, so a value is assigned for each lumen material, such as stainless steel and polyethylene. The value is adjusted to provide an area scale, which correlates efficacy results from the sterilization cycles, as discussed below.
# as §1
# (§2) Correcting the rate constant from 0.46 sec^−1 at 30° C. to 1.41 sec^−1 at 5° C. is initiated by writing the rate constant as the sum of the decomposition rate constant k^D and the condensation rate constant k^C. […] For a rate constant 0.46 sec^−1 at 30° C., each individual rate constant of decomposition k^D and condensation k^C is approximately 0.46/2=0.23 sec^−1. […] The rate constant of decomposition k^D at 5° C. is calculated from the rate constant of decomposition k^D at 30° C. and the rate factors for decomposition at 30° C. and 5° C.: k^D at 5° C.=0.23 sec^−1×(1 rate factor at 5° C./7 rate factor at 30° C.)=0.03 sec^−1. […] Finally, the rate constant at 5° C. is calculated as the sum of the rate constants of condensation k^C and of decomposition k^D at 5° C.: k at 5° C.=1.38 sec^−1+0.03 sec^−1=1.41 sec^−1.
# The adjustment for diameter is made in Table 1 by correcting the rate constant 0.46 sec^−1 for 3 mm stainless steel lumens to 4.14 sec^−1 for 1 mm lumens with factors for the surface to volume ratio and diffusion radius ratio.
# Surface to volume ratio correction factor=(surface/volume)1 mm/(surface/volume)3 mm=(2πrL)1 mm/(2πrL/πr^2L)3 mm=(1/r)1 mm/(1/r)3 mm=[…]=1.5 mm/0.5 mm=3
# In addition to correction for surface to volume ratio, correction of the rate constant 0.46 sec^−1 for diffusion radius is necessary, because diffusion to the wall of the smaller lumen is greater than for the larger one. Diffusion radius ratio correction factor=(r)3 mm/(r)1 mm=1.5 mm/0.5 mm=3
# The area scale for the second lumen material, polyethylene (PE), in Table 1 is established similarly for a limiting case in the STERRAD® 200 Sterilizer. The rate constant is set at 0.33 sec^−1 for 1 mm×500 mm lumens to give an area of approximately 100 mg−sec/l. […] The rate constant 0.33 sec^−1 for lumens with 1 mm diameter is corrected with factors for the surface to volume ratio and diffusion radius ratio to obtain the rate constant 0.037 sec-^−1 for 3 mm lumens.
# [3] = 30 °C
# Description: as §2
# [4] = cited from earlier work
# [5] = cited from earlier work; remark: listed apart in the source
# [6] = lumen 0.8 × 100 mm SS, 30 °C, injection time 6.5 min
# [7] = lumen 0.8 × 150 mm SS, 30 °C, injection time 6.5 min
# [8] = lumen 1 × 125 mm SS, 30 °C, injection time 6.5 min
# [9] = lumen 1 × 500 mm PE, 30 °C, injection time 6.5 min
# [10] = lumen 1 × 700 mm PE, 30 °C, injection time 6.5 min
# [11] = lumen 3 × 400 mm SS, 5 °C, injection time 6.5 min
# [12] = lumen 3 × 400 mm SS, 30 °C, injection time 1 min
# [13] = lumen 3 × 400 mm SS, 30 °C, injection time 2 min
# [14] = lumen 3 × 400 mm SS, 30 °C, injection time 6.5 min
# [15] = lumen 3 × 500 mm SS, 30 °C, injection time 6.5 min
# [16] = lumen 3 × 1000 mm PE, 30 °C, injection time 6.5 min
# [17] = lumen 3 × 1500 mm PE, 30 °C, injection time 6.5 min
compound,measurement,setting,value
OO [hydrogen peroxide],Fraction Positive Biological Indicators,[1]; [6],0/48
same,Indicator Results Zone,[1]; [6],Negative
same,Fraction Positive Biological Indicators,[1]; [7],2/24
same,Indicator Results Zone,[1]; [7],Positive
same,Fraction Positive Biological Indicators,[1]; [8],0/36
same,Indicator Results Zone,[1]; [8],Negative
same,Fraction Positive Biological Indicators,[1]; [9],0/36
same,Indicator Results Zone,[1]; [9],Mixed
same,Fraction Positive Biological Indicators,[1]; [10],1/12
same,Indicator Results Zone,[1]; [10],Positive
same,Fraction Positive Biological Indicators,[1]; [11],1/72
same,Indicator Results Zone,[1]; [11],Positive
same,Fraction Positive Biological Indicators,[1]; [12],4/72
same,Indicator Results Zone,[1]; [12],Mixed
same,Fraction Positive Biological Indicators,[1]; [13],0/72
same,Indicator Results Zone,[1]; [13],Mixed
same,Fraction Positive Biological Indicators,[1]; [14],0/72
same,Indicator Results Zone,[1]; [14],Negative
same,Fraction Positive Biological Indicators,[1]; [15],0/96
same,Indicator Results Zone,[1]; [15],Mixed
same,Fraction Positive Biological Indicators,[1]; [16],0/36
same,Indicator Results Zone,[1]; [16],Negative
same,Indicator Results Zone,"[1]; lumen 3 × 1500 mm PE, 30 °C, injection time 20, 25, 30 min",Negative
same,Fraction Positive Biological Indicators,[1]; [17],1/36
same,Indicator Results Zone,[1]; [17],Mixed
same,Fraction Positive Biological Indicators,"[1]; lumen 3 × 1500 mm PE, 30 °C, injection time 20 min",0/12
same,Fraction Positive Biological Indicators,"[1]; lumen 3 × 1500 mm PE, 30 °C, injection time 25 min",0/12
same,Fraction Positive Biological Indicators,"[1]; lumen 3 × 1500 mm PE, 30 °C, injection time 30 min",0/12
same,Fraction Positive BIs,"[1]; lumen 3 × 1500 mm PE, 30 °C, injection times 20, 25, 30 min pooled",0/36
same,"−k, rate constant for losses in the lumen","[2]; 0.8 mm stainless steel lumens, 30 °C, k3 mm × 3.75 × 3.75",6.47 s⁻¹
same,"−k, rate constant for losses in the lumen","[2]; 0.8 mm stainless steel lumens, 30 °C, k3 mm × 3.75 × 3.75, listed as H2O2",6.47 s⁻¹
same,"−k, rate constant for losses in the lumen","[2]; 1 mm polyethylene lumens, 30 °C, k chosen to give 100 mg-sec/l area threshold",0.33 s⁻¹
same,"−k, rate constant for losses in the lumen","[2]; 1 mm polyethylene lumens, 30 °C, k chosen to give 100 mg-sec/l area threshold, listed as H2O2",0.33 s⁻¹
same,"−k, rate constant for losses in the lumen","[2]; 1 mm stainless steel lumens, 30 °C, k3 mm × 3 × 3",4.14 s⁻¹
same,"−k, rate constant for losses in the lumen","[2]; 1 mm stainless steel lumens, 30 °C, k3 mm × 3 × 3, listed as H2O2",4.14 s⁻¹
same,"−k, rate constant for losses in the lumen","[2]; 1 mm stainless steel lumens, 30 °C, k3 mm × 3 × 3, listed as Hydrogen Peroxide",4.14 ^d sec^−1
same,"−k, rate constant for losses in the lumen","[2]; 3 mm polyethylene lumens, 30 °C, k1 mm/(3 × 3)",0.037 s⁻¹
same,"−k, rate constant for losses in the lumen","[2]; 3 mm polyethylene lumens, 30 °C, k1 mm/(3 × 3), listed as H2O2",0.037 s⁻¹
same,"−k, rate constant for losses in the lumen","[2]; 3 mm polyethylene lumens, 30 °C, k1 mm/(3 × 3), listed as Hydrogen Peroxide",0.037 ^f sec^−1 and 0.037 sec^−1
same,rate constant of condensation k^C,[2]; 5 °C,1.38 s⁻¹
same,rate constant of decomposition k^D,[2]; 5 °C,0.03 s⁻¹
same,rate constant of condensation k^C,[2]; 30 °C,~0.23 s⁻¹
same,rate constant of decomposition k^D,[2]; 30 °C,~0.23 s⁻¹
same,"−k, rate constant for losses in the lumen","[2]; 3 mm stainless steel lumens, 5 °C, calculated from k at 30 °C, vapor pressure data and decomposition rate factor",1.41 s⁻¹
same,"−k, rate constant for losses in the lumen","[2]; 3 mm stainless steel lumens, 5 °C, calculated from k at 30 °C, vapor pressure data and decomposition rate factor, listed as H2O2",1.41 s⁻¹
same,"−k, rate constant for losses in the lumen","[2]; 3 mm stainless steel lumens, 5 °C, calculated from k at 30 °C, vapor pressure data and decomposition rate factor, listed as Hydrogen Peroxide",1.41 ^c sec^−1
same,"−k, rate constant for losses in the lumen","[2]; 3 mm stainless steel lumens, 30 °C, k chosen to give 100 mg-sec/l area threshold",0.46 s⁻¹
same,"−k, rate constant for losses in the lumen","[2]; 3 mm stainless steel lumens, 30 °C, k chosen to give 100 mg-sec/l area threshold, listed as H2O2",0.46 s⁻¹
same,Rate Factor for Decomposition,[3],7
same,vapor pressure of hydrogen peroxide,[4]; at 5 °C,0.46 mm Hg
same,vapor pressure of hydrogen peroxide,[4]; at 30 °C,2.77 mm Hg
same,Rate Factor for Decomposition,[5]; 5 °C (base case),1
same,Rate Factor for Decomposition,"[5]; 5 °C (base case), listed as Hydrogen Peroxide",1 Base Case
same,Rate Factor for Decomposition,[5]; 15 °C,2.2
same,Rate Factor for Decomposition,[5]; 25 °C,4.84
same,Rate Factor for Decomposition,[5]; 35 °C,10.65
same,Rate Factor for Decomposition,[5]; 45 °C,23.4
same,factor by which the decomposition rate increases,[5]; per each 10 °C rise in temperature,2.2
